{
  "source": "ChEMBL document CHEMBL3868595",
  "about": "“Plazomicin is effective in a non-human primate pneumonic plague model” (Bioorg Med Chem, 2016)",
  "key": {"[1]": {"tested_on": "African green monkey", "experiment": "Toxicity in African green monkey 7643 model infected with Yersinia pestis Colorado 92 assessed as serum alanine aminotransferase level at 25 mg/kg, iv administered within 6 hrs post onset of sustained fever as 30 mins infusion for 10 days (reference value: 53 IU/L)", "type": "organism-based", "conditions": "chlorocebus sabaeus, in vivo"}, "[2]": {"tested_on": "Yersinia pestis", "experiment": "Antibacterial activity against Yersinia pestis Colorado 92 infected in African green monkey B6988 model assessed as bacterial burden in brain at 6.25 mg/kg, iv administered within 6 hrs post onset of sustained fever as 30 mins infusion for 5 days (reference value: 1.9 10^6CFU/g)", "type": "functional, CO92"}, "[3]": {"experiment": "Cmax in African green monkey blood at 25 mg/kg administered as iv infusion twice daily for 7 consecutive days measured on day 7 by LC-MS/MS analysis", "type": "ADME, organism-based", "set-up": "dose 25 mg/kg, route intravenous", "conditions": "chlorocebus aethiops"}, "[4]": {"tested_on": "Yersinia pestis", "experiment": "Antibacterial activity against Yersinia pestis Colorado 92 infected in African green monkey assessed as survival of monkey at 25 mg/kg, iv administered within 6 hrs post onset of sustained fever as 30 mins infusion for 5 days", "type": "functional", "conditions": "CO92, iv"}, "[5]": {"tested_on": "Yersinia pestis", "experiment": "Antibacterial activity against Yersinia pestis Colorado 92 infected in African green monkey B6872 model assessed as bacterial burden in spleen at 25 mg/kg, iv administered within 6 hrs post onset of sustained fever as 30 mins infusion for 5 days (reference value: 1.6 10^9CFU/g)", "type": "functional, organism-based", "conditions": "CO92"}, "[6]": {"tested_on": "Yersinia pestis", "experiment": "Antibacterial activity against Yersinia pestis Colorado 92 infected in African green monkey B6861 model assessed as bacterial burden in tracheobronchial lymph nodes at 6.25 mg/kg, iv administered within 6 hrs post onset of sustained fever as 30 mins infusion for 5 days (reference value: 7.7 10^9CFU/g)", "type": "functional, CO92, Lymph node"}, "[7]": {"experiment": "Clearance in African green monkey blood at 35 mg/kg administered as iv infusion twice daily for 7 consecutive days measured on day 1 by LC-MS/MS analysis", "type": "ADME, organism-based", "conditions": "chlorocebus aethiops"}, "[8]": {"tested_on": "African green monkey", "experiment": "Toxicity in African green monkey B6428 model infected with Yersinia pestis Colorado 92 assessed as serum alanine aminotransferase level at 25 mg/kg, iv administered within 6 hrs post onset of sustained fever as 30 mins infusion for 10 days (reference value: 83 IU/L)", "type": "organism-based", "conditions": "chlorocebus sabaeus, in vivo"}, "[9]": {"experiment": "Toxicity in African green monkey 7929 model infected with Yersinia pestis Colorado 92 assessed as total white blood cell count at 25 mg/kg, iv administered within 6 hrs post onset of sustained fever as 30 mins infusion for 10 days (reference value: 10.9 10^3/microL)", "type": "organism-based", "conditions": "chlorocebus aethiops, in vivo"}, "[10]": {"tested_on": "African green monkey", "experiment": "Toxicity in African green monkey 7653 model infected with Yersinia pestis Colorado 92 assessed as serum creatinine level at 25 mg/kg, iv administered within 6 hrs post onset of sustained fever as 30 mins infusion for 10 days (reference value: 0.6 mg/dl)", "type": "organism-based", "conditions": "chlorocebus sabaeus, in vivo"}, "[11]": {"tested_on": "Yersinia pestis", "experiment": "Antibacterial activity against Yersinia pestis Colorado 92 infected in African green monkey B6783 model assessed as bacterial burden in liver at 12.5 mg/kg, iv administered within 6 hrs post onset of sustained fever as 30 mins infusion for 5 days (reference value: 5.2 10^8CFU/g)", "type": "functional, CO92"}, "[12]": {"tested_on": "Yersinia pestis", "experiment": "Antibacterial activity against Yersinia pestis Colorado 92 infected in African green monkey C2149 model assessed as bacterial burden in kidney at 6.25 mg/kg, iv administered within 6 hrs post onset of sustained fever as 30 mins infusion for 5 days (reference value: 7.1 10^7CFU/g)", "type": "functional, CO92"}, "[13]": {"tested_on": "Yersinia pestis", "experiment": "Antibacterial activity against Yersinia pestis Colorado 92 infected in African green monkey B6873 model assessed as bacterial burden in kidney at 12.5 mg/kg, iv administered within 6 hrs post onset of sustained fever as 30 mins infusion for 5 days (reference value: 7.1 10^7CFU/g)", "type": "functional, organism-based", "conditions": "CO92"}, "[14]": {"experiment": "Toxicity in African green monkey B6408 model infected with Yersinia pestis Colorado 92 assessed as total white blood cell count at 25 mg/kg, iv administered within 6 hrs post onset of sustained fever as 30 mins infusion for 10 days (reference value: 6.9 10^3/microL)", "type": "organism-based", "conditions": "chlorocebus aethiops, in vivo"}, "[15]": {"tested_on": "African green monkey", "experiment": "Toxicity in African green monkey B5994 model infected with Yersinia pestis Colorado 92 assessed as serum lactate dehydrogenase level at 25 mg/kg, iv administered within 6 hrs post onset of sustained fever as 30 mins infusion for 10 days (reference value: 364 IU/L)", "type": "organism-based", "conditions": "chlorocebus sabaeus, in vivo"}, "[16]": {"experiment": "AUC (0 to 24 hrs) in African green monkey blood at 35 mg/kg administered as iv infusion twice daily for 7 consecutive days measured on day 7 by LC-MS/MS analysis", "type": "ADME, organism-based", "set-up": "time < 24 hr, dose 35 mg/kg, route intravenous", "conditions": "chlorocebus aethiops"}, "[17]": {"experiment": "Toxicity in African green monkey B5994 model infected with Yersinia pestis Colorado 92 assessed as total white blood cell count at 25 mg/kg, iv administered within 6 hrs post onset of sustained fever as 30 mins infusion for 10 days (reference value: 8 10^3/microL)", "type": "organism-based", "conditions": "chlorocebus aethiops, in vivo"}, "[18]": {"tested_on": "African green monkey", "experiment": "Toxicity in African green monkey 7337 model infected with Yersinia pestis Colorado 92 assessed as serum gamma glutamyl-transferase level at 25 mg/kg, iv administered within 6 hrs post onset of sustained fever as 30 mins infusion for 10 days (reference value: 67 IU/L)", "type": "organism-based", "conditions": "chlorocebus sabaeus, in vivo"}, "[19]": {"tested_on": "Yersinia pestis", "experiment": "Antibacterial activity against Yersinia pestis Colorado 92 infected in African green monkey B6872 model assessed as bacterial burden in liver at 25 mg/kg, iv administered within 6 hrs post onset of sustained fever as 30 mins infusion for 5 days (reference value: 5.2 10^8CFU/g)", "type": "functional, organism-based", "conditions": "CO92"}, "[20]": {"tested_on": "Yersinia pestis", "experiment": "Antibacterial activity against Yersinia pestis Colorado 92 infected in African green monkey B6106 model assessed as bacterial burden in tracheobronchial lymph nodes at 25 mg/kg, iv administered within 6 hrs post onset of sustained fever as 30 mins infusion for 5 days (reference value: 7.7 10^9CFU/g)", "type": "functional, organism-based", "conditions": "CO92, Lymph node"}, "[21]": {"tested_on": "Yersinia pestis", "experiment": "Antibacterial activity against Yersinia pestis Colorado 92 infected in African green monkey B6415 model assessed as bacterial burden in brain at 25 mg/kg, iv administered within 6 hrs post onset of sustained fever as 30 mins infusion for 5 days (reference value: 1.9 10^6CFU/g)", "type": "functional, CO92"}, "[22]": {"tested_on": "Yersinia pestis", "experiment": "Antibacterial activity against Yersinia pestis Colorado 92 infected in African green monkey B6783 model assessed as bacterial burden in brain at 12.5 mg/kg, iv administered within 6 hrs post onset of sustained fever as 30 mins infusion for 5 days (reference value: 1.9 10^6CFU/g)", "type": "functional, CO92"}, "[23]": {"tested_on": "Yersinia pestis", "experiment": "Antibacterial activity against Yersinia pestis Colorado 92 infected in African green monkey B6872 model assessed as bacterial burden in kidney at 25 mg/kg, iv administered within 6 hrs post onset of sustained fever as 30 mins infusion for 5 days (reference value: 7.1 10^7CFU/g)", "type": "functional, organism-based", "conditions": "CO92"}, "[24]": {"tested_on": "Yersinia pestis", "experiment": "Antibacterial activity against Yersinia pestis Colorado 92 infected in African green monkey B6889 model assessed as bacterial burden in heart at 6.25 mg/kg, iv administered within 6 hrs post onset of sustained fever as 30 mins infusion for 5 days (reference value: 2.6 10^7CFU/g)", "type": "functional, CO92"}, "[25]": {"tested_on": "African green monkey", "experiment": "Toxicity in African green monkey B6291 model infected with Yersinia pestis Colorado 92 assessed as serum alanine aminotransferase level at 25 mg/kg, iv administered within 6 hrs post onset of sustained fever as 30 mins infusion for 10 days (reference value: 47 IU/L)", "type": "organism-based", "conditions": "chlorocebus sabaeus, in vivo"}, "[26]": {"experiment": "Volume of distribution at steady state in African green monkey blood at 35 mg/kg administered as iv infusion twice daily for 7 consecutive days measured on day 1 by LC-MS/MS analysis", "type": "ADME, organism-based", "conditions": "chlorocebus aethiops, read-out: Vdss"}},
  "data": [
    {"smiles": "CN[C@@H]1[C@@H](O)[C@@H](O[C@@H]2[C@@H](O)[C@H](O[C@H]3OC(CNCCO)=CC[C@H]3N)[C@@H](N)C[C@H]2NC(=O)[C@@H](O)CCN)OC[C@]1(C)O", "note": "[PLAZOMICIN]", "values": [
      {"measurement": "Activity", "setting": "[1]", "value": 43, "unit": "IU/L"},
      {"measurement": "Activity", "setting": "[2]", "value": 11, "unit": "CFU/g"},
      {"measurement": "Cmax", "setting": "[3]", "value": 106, "unit": "µg/mL"},
      {"measurement": "survival at 25 mg/kg", "setting": "[4]", "value": 69, "unit": "%"},
      {"measurement": "Activity", "setting": "[5]", "value": "Below limit of detection"},
      {"measurement": "Activity", "setting": "[6]", "value": 1.2, "unit": "×10⁸ CFU/g"},
      {"measurement": "clearance", "setting": "[7]", "value": 1.67, "unit": "mL/min/kg"},
      {"measurement": "Activity", "setting": "[8]", "value": 60, "unit": "IU/L"},
      {"measurement": "Activity", "setting": "[9]", "value": 8.5, "unit": "×10³ /uL"},
      {"measurement": "Activity", "setting": "[10]", "value": 0.8, "unit": "mg/dL"},
      {"measurement": "Activity", "setting": "[11]", "value": 8.4, "unit": "×10⁶ CFU/g"},
      {"measurement": "Activity", "setting": "[12]", "value": 16, "unit": "CFU/g"},
      {"measurement": "Activity", "setting": "[13]", "value": "Below limit of detection"},
      {"measurement": "Activity", "setting": "[14]", "value": 5.5, "unit": "×10³ /uL"},
      {"measurement": "Activity", "setting": "[15]", "value": 403, "unit": "IU/L"},
      {"measurement": "AUC at 24 h", "setting": "[16]", "value": 319, "unit": "µg·h/mL"},
      {"measurement": "Activity", "setting": "[17]", "value": 4.5, "unit": "×10³ /uL"},
      {"measurement": "Activity", "setting": "[18]", "value": 63, "unit": "IU/L"},
      {"measurement": "Activity", "setting": "[19]", "value": "Below limit of detection"},
      {"measurement": "Activity", "setting": "[20]", "value": "Below limit of detection"},
      {"measurement": "Activity", "setting": "[21]", "value": 39, "unit": "CFU/g"},
      {"measurement": "Activity", "setting": "[22]", "value": 33, "unit": "CFU/g"},
      {"measurement": "Activity", "setting": "[23]", "value": "Below limit of detection"},
      {"measurement": "Activity", "setting": "[24]", "value": 1, "unit": "×10⁶ CFU/g"},
      {"measurement": "Activity", "setting": "[25]", "value": 68, "unit": "IU/L"},
      {"measurement": "Vd", "setting": "[26]", "value": 0.26, "unit": "L/kg"}
    ]}
  ]
}
